Test results published in US20100041597A1, “PEPTIDES TARGETED TO PROTEIN KINASE C ISOFORMS AND USES THEREOF” (priority 2005, published 2010).
Values belong to the substance of their own block, whether it stands above or below them.

Legend:
PKC-α [1] = target: T1, PKC-α (Homo sapiens, UniProt P17252); test: In vitro competition with anti-PKC-α antibody on blotted cell lysate, Protocol A, IMR-32 cells; format: binding; parameters: subcellular localisation of endogenous PKC-α in IMR-32 cells; endogenous in cells; host or cells: IMR-32; settings: Protocol A; for Band Intensity / Inhibition (%) / Relative Intensity (%): IMR-32, Table 4
Description: The ability of the peptides to interfere with the binding of a PKC-α-specific monoclonal antibody to PKC-α was determined using the following protocol.
Cell lysates from either IMR-32 (human neuroblastoma) cells or C6Cx43 cells (rat glioma transfected cells overexpressing connexin 43) were obtained using standard protocols and the proteins of the lysate were separated by SDS PAGE electrophoresis and electrotransferred onto a nitrocellulose membrane. […] A primary polyclonal antibody specific for PKC-α (Santa Cruz Biotechnology, Inc., CA) was then added (15 μg/ml) and the membrane incubated for a further 45 minutes. Finally, the primary antibody was detected with a secondary antibody conjugated to alkaline phosphatase using standard procedures. The intensity of the band corresponding to PKC-α was assessed by scanning and densitometry using the Gel-Pro software (Media Cybernetics) to obtain relative band intensities (average of 3 replicas). Control assays were conducted as described above except that blocking buffer without peptide was used.
The results are expressed as relative band intensity and as a percentage of the intensity of the corresponding band in the control assay (“Relative intensity (%)”). “% inhibition” relates to the percentage of the PKC-α band that is inaccessible to the antibody.

PKC-α [2] = target: T1, PKC-α; test: Subcellular localisation of PKC-α in IMR-32 cells; format: cell-based; parameters: subcellular localisation of endogenous PKC-α in IMR-32 cells; endogenous in cells; host or cells: IMR-32; settings: 10 mg/ml, pinocytic endocytosis
Description: Peptides PRE 3 or PRE 4 (10 mg/ml) were introduced into human neuroblastoma cells (IMR-32) by pinocytic endocytosis. The cells were fixed and stained with rabbit PKC-A primary antibody and anti-rabbit Alexa-488 or Alexa-800 secondary antibody.
In most of the cells PKC-α can be seen to be located in the cytoplasm, around the nucleus and at the plasma membrane (where it becomes activated).

PKC-βII = PKC-βII (Homo sapiens, UniProt P05771); test: In vitro competition with anti-PKC-βII antibody, Protocol B, IMR-32 cells; format: binding; parameters: PRE 3 and PRE 4 in IMR-32 Neuroblastoma Cells: Protocol B; endogenous in cells; host or cells: IMR-32; settings: for Band Intensity: control band intensity 98.6, Table 9
Sequence of PKC-βII (P05771 1-673 isoform P05771-2): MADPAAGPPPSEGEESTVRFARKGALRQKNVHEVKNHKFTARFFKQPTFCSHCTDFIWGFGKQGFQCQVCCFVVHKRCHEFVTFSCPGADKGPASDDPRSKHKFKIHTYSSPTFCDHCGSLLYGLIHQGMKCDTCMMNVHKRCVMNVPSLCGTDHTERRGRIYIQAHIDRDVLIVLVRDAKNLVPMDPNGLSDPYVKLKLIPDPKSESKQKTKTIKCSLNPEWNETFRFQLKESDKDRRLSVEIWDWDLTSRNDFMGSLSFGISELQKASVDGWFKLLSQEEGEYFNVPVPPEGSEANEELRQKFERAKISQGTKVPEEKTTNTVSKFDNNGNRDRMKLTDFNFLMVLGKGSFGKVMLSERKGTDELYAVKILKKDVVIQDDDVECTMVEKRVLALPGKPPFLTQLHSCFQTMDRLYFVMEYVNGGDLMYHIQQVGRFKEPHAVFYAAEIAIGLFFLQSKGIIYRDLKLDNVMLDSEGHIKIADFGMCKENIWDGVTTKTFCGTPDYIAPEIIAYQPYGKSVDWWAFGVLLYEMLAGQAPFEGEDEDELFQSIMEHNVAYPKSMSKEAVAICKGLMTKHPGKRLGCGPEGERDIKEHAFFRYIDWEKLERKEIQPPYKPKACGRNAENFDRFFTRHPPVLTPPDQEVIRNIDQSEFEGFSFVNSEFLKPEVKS
Description: (§1) Peptides PRE 3 and PRE 4 (see Table 3) were tested for their ability to interfere with the binding of isoform-specific polyclonal antibodies (Santa Cruz Biotechnology, Inc.) to PKC-α, PKC-βI or PKC-βII using the general protocol described in Example 3.

[3] = system: IMR-32 neuroblastoma cells; test: In vitro toxicity test (fluorimetric DNA assay, Hoechst); format: cell-based, human
Description: (§2) In vitro cytotoxicity testing of the peptides PRE 3, PRE 4 and PRE 5 (see Table 3) was conducted following the general protocol outlined below (modified from “Fluorimetric DNA assay for cell growth estimation” Rao J, Otto W., Analytical Biochem. 207:186-192, 1992).
(§3) The assay was performed in 96 well plates, with 3,000 IMR-32 neuroblastoma cells seeded per well and 8 replicas were performed per treatment. The cells were pre-treated with either plain medium and a pinocytic endocytosis reagent (Molecular Probes) or medium containing the PRE under evaluation and the pinocytic endocytosis reagent. The cells were allowed to grow under conventional conditions for 3 days. The DNA content of each well was assessed at 24, 48 and 72 hours using Hoechst reagent according to standard procedures. The fluorescence intensity per well was measured using the plate reader “CytoFluor 2350” from Millipore. Excitation was 360 nm and emission was 460 nm. The number of cells is directly correlated to the DNA content.
(§4) The results are shown in Tables 11-13 as the average relative fluorescence intensity measured for the 8 replica wells, as well as the percentage of survival as compared with matching untreated controls.

[4] = as above; format: cell-based, human; settings: human, IMR-32 neuroblastoma cells, read-out: % survival
Description: as §2, §3, §4

PKC-βI = PKC-βI (Homo sapiens, UniProt P05771); test: In vitro competition with anti-PKC-βI antibody, Protocol B, IMR-32 cells; format: binding; parameters: PRE 3 and PRE 4 in IMR-32 Neuroblastoma Cells: Protocol B; endogenous in cells; host or cells: IMR-32; settings: for Band Intensity: control band intensity 170.5, Table 9
Sequence of PKC-βI (P05771 whole entry): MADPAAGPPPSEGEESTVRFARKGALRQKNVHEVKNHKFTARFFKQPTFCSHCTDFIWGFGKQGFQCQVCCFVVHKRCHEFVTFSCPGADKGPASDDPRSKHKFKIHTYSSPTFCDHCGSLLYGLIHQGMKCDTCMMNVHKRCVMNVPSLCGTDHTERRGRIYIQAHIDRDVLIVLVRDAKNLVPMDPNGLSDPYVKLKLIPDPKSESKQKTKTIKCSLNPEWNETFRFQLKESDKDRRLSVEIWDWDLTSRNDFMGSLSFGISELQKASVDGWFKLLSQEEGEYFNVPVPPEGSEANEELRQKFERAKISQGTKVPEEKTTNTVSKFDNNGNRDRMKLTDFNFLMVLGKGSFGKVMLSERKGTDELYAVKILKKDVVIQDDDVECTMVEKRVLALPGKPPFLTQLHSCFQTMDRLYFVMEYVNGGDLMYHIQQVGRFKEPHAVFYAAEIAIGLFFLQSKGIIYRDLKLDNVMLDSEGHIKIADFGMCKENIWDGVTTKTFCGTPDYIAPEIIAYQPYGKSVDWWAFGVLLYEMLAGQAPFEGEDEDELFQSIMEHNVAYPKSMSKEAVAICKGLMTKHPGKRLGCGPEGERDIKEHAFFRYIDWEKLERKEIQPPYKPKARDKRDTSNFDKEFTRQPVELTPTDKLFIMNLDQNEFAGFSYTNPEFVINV
Description: The ability of the peptides PRE 2 and PRE 3 (see Table 3) to interfere with the binding of a PKC-α-specific polyclonal antibody (Santa Cruz Biotechnology, Inc.) to PKC-α was determined using a modified version of the protocol outlined above in which the test peptide was added directly to the cell extract prior to electrophoresis at a concentration of either 5× or 15× the concentration of the protein applied to each well of the gel for the Western blots (20 μg).
as §1

[5] = 2.5 mg/ml, 24 h, with pinocytic endocytosis reagent
[6] = 2.5 mg/ml, 48 h, with pinocytic endocytosis reagent
[7] = 2.5 mg/ml, 72 h, with pinocytic endocytosis reagent
[8] = 10 mg/ml, 24 h, with pinocytic endocytosis reagent
[9] = 10 mg/ml, 48 h, with pinocytic endocytosis reagent
[10] = 10 mg/ml, 72 h, with pinocytic endocytosis reagent

- Band Intensity (PKC-α [1]; 75 μg peptide): 1.040
- Inhibition (%) (PKC-α [1]; 75 μg peptide): 50.2%
- Relative Intensity (%) (PKC-α [1]; 75 μg peptide): 49.8%
- Band Intensity (PKC-α [1]; 300 μg peptide): 0.771
- Inhibition (%) (PKC-α [1]; 300 μg peptide): 63.1%
- Relative Intensity (%) (PKC-α [1]; 300 μg peptide): 36.9%
- effect on antibody binding to PKC-α (PKC-α [1]): mask the antigenic site of PKC-α
Substance: RRKKGGKDFVVKR [PRE 1]

- effect on antibody binding to PKC-βII (PKC-βII): some cross-reactivity
- inhibition at 0.1 mg (PKC-βII; 100 μg, PKC-βII, Table 9): 29%
- remaining activity at 0.1 mg (PKC-βII; 100 μg, PKC-βII, Table 9, read-out: Relative Intensity (%)): 69.5%
- Band Intensity (PKC-βII; 100 μg, PKC-βII): 69.58
- inhibition at 0.2 mg (PKC-βII; 200 μg, PKC-βII, Table 9): 100%
- remaining activity at 0.2 mg (PKC-βII; 200 μg, PKC-βII, Table 9, read-out: Relative Intensity (%)): 0%
- Band Intensity (PKC-βII; 200 μg, PKC-βII): 0.0
- inhibition at 0.3 mg (PKC-βII; 300 μg, PKC-βII, Table 9): 100%
- remaining activity at 0.3 mg (PKC-βII; 300 μg, PKC-βII, Table 9, read-out: Relative Intensity (%)): 0%
- Band Intensity (PKC-βII; 300 μg, PKC-βII): 0.0
- effect on antibody binding to PKC-βI (PKC-βI): some cross-reactivity
- inhibition at 0.1 mg (PKC-βI; 100 μg, PKC-βI, Table 9): 34%
- remaining activity at 0.1 mg (PKC-βI; 100 μg, PKC-βI, Table 9, read-out: Relative Intensity (%)): 66%
- Band Intensity (PKC-βI; 100 μg, PKC-βI): 112.5
- inhibition at 0.2 mg (PKC-βI; 200 μg, PKC-βI, Table 9): 100%
- remaining activity at 0.2 mg (PKC-βI; 200 μg, PKC-βI, Table 9, read-out: Relative Intensity (%)): 0%
- Band Intensity (PKC-βI; 200 μg, PKC-βI): 0.0
- inhibition at 0.3 mg (PKC-βI; 300 μg, PKC-βI, Table 9): 100%
- remaining activity at 0.3 mg (PKC-βI; 300 μg, PKC-βI, Table 9, read-out: Relative Intensity (%)): 0%
- Band Intensity (PKC-βI; 300 μg, PKC-βI): 0.0
Substance: Ac-KDAQNLIGISI-NH2 [PRE 4, Ac-KDAQNLIGISI-NH2]
- effect on subcellular localisation of PKC-α (PKC-α [2]): prevented translocation of PKC-α to the membrane
- AFI (Average fluorescence intensity) [3, 5]: 179
- AFI (Average fluorescence intensity) [3, 6]: 240
- AFI (Average fluorescence intensity) [3, 7]: 777
- AFI (Average fluorescence intensity) [3, 8]: 173
- AFI (Average fluorescence intensity) [3, 9]: 247
- AFI (Average fluorescence intensity) [3, 10]: 809
- viability at 24 h, 2500 µg/mL [4, 5]: 106%
- viability at 48 h, 2500 µg/mL [4, 6]: 99%
- viability at 72 h, 2500 µg/mL [4, 7]: 110%
- viability at 24 h, 10000 µg/mL [4, 8]: 103%
- viability at 48 h, 10000 µg/mL [4, 9]: 101%
- viability at 72 h, 10000 µg/mL [4, 10]: 115%

Substance: Ac-AKGIQEVKGGKDAQNLIGISI-NH2 [PRE 5]
- AFI (Average fluorescence intensity) ([3]; 62.5 μg/ml, 24 h, 3000 cells/100 μl/well, Table 13): 717
- AFI (Average fluorescence intensity) ([3]; 62.5 μg/ml, 48 h, Table 13): 1084
- AFI (Average fluorescence intensity) ([3]; 62.5 μg/ml, 72 h, Table 13): 1290
- AFI (Average fluorescence intensity) ([3]; 125 μg/ml, 24 h, Table 13): 593
- AFI (Average fluorescence intensity) ([3]; 125 μg/ml, 48 h, Table 13): 991
- AFI (Average fluorescence intensity) ([3]; 125 μg/ml, 72 h, Table 13): 1200
- AFI (Average fluorescence intensity) ([3]; 250 μg/ml, 24 h, Table 13): 557
- AFI (Average fluorescence intensity) ([3]; 250 μg/ml, 48 h, Table 13): 899
- AFI (Average fluorescence intensity) ([3]; 250 μg/ml, 72 h, Table 13): 1150
- AFI (Average fluorescence intensity) ([3]; 500 μg/ml, 24 h, Table 13): 492
- AFI (Average fluorescence intensity) ([3]; 500 μg/ml, 48 h, Table 13): 891
- AFI (Average fluorescence intensity) ([3]; 500 μg/ml, 72 h, Table 13): 1082
- viability at 24 h, 62.5 µg/mL ([4]; 62.5 μg/ml, 24 h, Table 13): 113%
- viability at 48 h, 62.5 µg/mL ([4]; 62.5 μg/ml, 48 h, Table 13): 117%
- viability at 72 h, 62.5 µg/mL ([4]; 62.5 μg/ml, 72 h, Table 13): 100%
- viability at 24 h, 125 µg/mL ([4]; 125 μg/ml, 24 h, Table 13): 94%
- viability at 48 h, 125 µg/mL ([4]; 125 μg/ml, 48 h, Table 13): 107%
- viability at 72 h, 125 µg/mL ([4]; 125 μg/ml, 72 h, Table 13): 93%
- viability at 24 h, 250 µg/mL ([4]; 250 μg/ml, 24 h, Table 13): 88%
- viability at 48 h, 250 µg/mL ([4]; 250 μg/ml, 48 h, Table 13): 97%
- viability at 72 h, 250 µg/mL ([4]; 250 μg/ml, 72 h, Table 13): 89%
- viability at 24 h, 500 µg/mL ([4]; 500 μg/ml, 24 h, Table 13): 78%
- viability at 48 h, 500 µg/mL ([4]; 500 μg/ml, 48 h, Table 13): 96%
- viability at 72 h, 500 µg/mL ([4]; 500 μg/ml, 72 h, Table 13): 84%
